Laboratory results reported in patent publication US5340818A, “Methods and compositions for inhibiting tumor cell growth” (priority 1993, dated 1994).
Where “and” joins values, the source holds several entries; their conditions need not be identical. Identical values can stand only once. Like-named read-outs stand apart in the source and are kept apart here.

What was measured:
[1] = tested on: RNA synthesis in HL-60 cells; experiment: Inhibition of [5-3H]Cyd incorporation into RNA of HL-60 cells; assay type: cell-based, human; conditions: for inhibition at 30 µg/mL: Homo sapiens, HL-60, 0.5 h
Description: (§1) For the precursor incorporation studies, each compound (in 0.3% dimethylsulfoxide) was preincubated with HL-60 cells (a human promyelocytic leukemic cell line) 2.2×10^6 /ml, for 15 min prior to the addition of the labeled precursor (obtained from ICN Radiochemicals, Irvine, Calif.) and then incubated for 30 min. The precursors used for incorporation into DNA, RNA and protein were [^3 H-methyl]dThd (1 μCi, 0.15 nmole/ml), [5-^3 H]Cyd (5 μCi, 0.23 nmol/ml), and [2,3,4,5-^3 H]L-Leu (0.5 μCi, 0.004 nmol/ml), respectively. Incorporation of radioactivity in the absence of a plant compound and in the presence of dimethylsulfoxide was used as a control. The control values for incorporation into DNA, RNA and protein were 8,500, 5,600 and 1,700 cpm/10^6 cells, respectively. The incubation conditions and the procedures for isolating DNA, RNA and protein fractions have been previously described (Chou, T. -C., et al., Cancer Res., 43:3074-3079 (1983)) .
(§2) HL-60 cells were incubated with [5-^3 H]Cyd or [2,3,4,5-^3 H]L-Leu in the presence and absence of alkaloids (0.03 mg/ml) in order to find the effects of the alkaloid on the incorporation of labeled precursors into RNA or protein. […] Over 90% of RNA and protein biosynthesis were inhibited by compounds 11, 16, 17, 22, 28, 29and 30 (Table 1). […] In most cases, the amount required to inhibit precursor incorporation into DNA was less than that to inhibit precursor incorporation into RNA or protein (i.e. DNA synthesis is inhibited most potently).

[2] = tested on: HL-60 cells; experiment: HL-60 cell growth inhibition, 72 h; assay type: cell-based, human; conditions: HL-60, 72 h; for IC50: read-out: Cell Growth Inhibition, IC50
Description: For growth inhibition studies, HL-60 cells (1.5×10^5 /ml) were grown in RPMI 1640 media (GIBCO, Grand Island, N.Y.) at 37° C. in humidified 5% CO2 for 72 h. Viable cells were determined using trypan blue exclusion and counted in a hemocytometer. The fractional inhibition for each compound concentration (0.0025-0.05 mg/ml in 0.1% dimethylsulfoxide) was analyzed with the median-effect plot using a computer program (Chou, T. -C and P. Talalay, Adv. Enzyme Regul., 22:27-55 (1984); Chou, J. and T. -C. thou, Dose-Effect analysis with microcomputers: Quantitation of ED50, LD50, synergism, antagonism, low-dose risk, receptor ligand binding and enzyme kinetics. A computer software disk for Apple II series or IBM-PC and manual. Elsevier Science Publishers, Elsevier-BioSoft, Cambridge, United Kingdom (1986)). The median-effect concentration (IC50) was determined automatically for three to five dose-effect levels. Cell growth in the absence of plant compound and in the presence of dimethylsulfoxide was used as a control. Dimethylsulfoxide alone inhibited cell growth 3.9%±1.5% during the 72 h incubation period. Those data with negative values represent activations.

[3] = tested on: DNA synthesis in HL-60 cells; experiment: Inhibition of [3H-methyl]dThd incorporation into DNA of HL-60 cells; assay type: cell-based, human; conditions: for inhibition of DNA synthesis, in words: HL-60, 0.03 mg/ml; for inhibition at 30 µg/mL: Homo sapiens, HL-60, at 0.03 mg/mL, read-out: % Inhibition of Precursor Incorporation, DNA; for % Inhibition of Precursor Incorporation, DNA: at 0.03 mg/mL
Description: as §1, with “control.” for “control. The control values for incorporation into DNA, RNA and protein were 8,500, 5,600 and 1,700 cpm/10^6 cells, respectively. The incubation conditions and the procedures for isolating DNA, RNA and protein fractions have been previously described (Chou, T. -C., et al., Cancer Res., 43:3074-3079 (1983)) .”
Human promyelocytic cells (HL-60) were incubated with [^3 H-methyl]dTHDin the presence and absence of a plant alkaloid.

[4] = tested on: protein synthesis in HL-60 cells; experiment: Inhibition of [2,3,4,5-3H]L-Leu incorporation into protein of HL-60 cells; assay type: cell-based, human; conditions: for inhibition at 30 µg/mL: Homo sapiens; for % Inhibition of Precursor Incorporation, Protein: at 0.03 mg/mL
Description: as §1, §2

[5] = tested on: L1210 leukemia; experiment: L1210 leukemia survival time evaluation in BDF1 mice; conditions: 12.5 mg/kg, day 1, QDX4 ip
[6] = tested on: L1210/0 cells; experiment: Cross-resistance studies: growth inhibition of doxorubicin-sensitive L1210/0 cells; assay type: cell-based; conditions: L1210/0 (doxorubicin sensitive)
[7] = tested on: L1210/Dx cells; experiment: Cross-resistance studies: growth inhibition of doxorubicin-resistant L1210/Dx cells; assay type: cell-based
[8] = at 0.03 mg/mL, read-out: % Inhibition of Precursor Incorporation, RNA
[9] = HL-60, at 0.03 mg/mL, read-out: % Inhibition of Precursor Incorporation, Protein

Row | Compound | IC50 ([2]; Homo sapiens) | inhibition of DNA synthesis, in words [3] | inhibition at 30 µg/mL [3] | inhibition at 30 µg/mL [1, 8] | inhibition at 30 µg/mL [4, 9] | % Inhibition of Precursor Incorporation, RNA ([1]; at 0.03 mg/mL) | Cell Growth Inhibition, IC50 [2] | IC50 [2] | % Inhibition of Precursor Incorporation, DNA [3] | % Inhibition of Precursor Incorporation, Protein [4] | other results
1 | CC(C)=CCc1c2c(c3c(c1O)c(=O)c1cccc(O)c1n3C)C=CC(C)(C)O2 [Compound 46, 11-Hydroxy-N-methyl severifoline] | 5.9 µg/mL and 15.1 µM | significant activity | 97.9% |  |  |  |  |  |  |  | inhibition at 30 µg/mL ([1]; read-out: % Inhibition of Precursor Incorporation, RNA, at 0.03 mg/mL): 16.7%; inhibition at 30 µg/mL ([4]; HL-60, read-out: % Inhibition of Precursor Incorporation, Protein, at 0.03 mg/mL): 4.22%
2 | CC(=O)Oc1cccc2c(=O)c3c(O)c(CC=C(C)C)c4c(c3n(C)c12)C=CC(C)(C)O4 [Compound 47, 11-O-Acetyl-N-methyl severifoline] | 8.8 µg/mL and 20.3 µM |  | 58.4% | 16.2% | 36.2% |  |  |  |  |  | 
3 | COc1c2c(c(O)c3c(=O)c4cccc(O)c4n(C)c13)C=CC(C)(C)O2 [Compound 48, Pyranofoline] | 3.1 µg/mL and 8.8 µM | inhibited DNA synthesis significantly | 98.8% | 97.2% | 96.4% |  |  |  |  |  | cell growth inhibition, in words [2]: better activity than that of acronycine
4 | C=C(C)C1CCC2(C)CC1c1c(cc3c(c1O)c(=O)c1cccc(O)c1n3C)O2 (stereo not shown) [Compound 50, Cycloglyco-foline] | 5.8 µg/mL and 14.8 µM | inhibited DNA synthesis significantly | 98.7% | 55.7% | 92.1% |  |  |  |  |  | inhibition of RNA biosynthesis, in words ([1]; HL-60, 0.03 mg/ml): The same results were obtained; cell growth inhibition, in words [2]: better activity than that of acronycine; Day 6 AWC [5]: +1.8 g; MST [5]: 8.5; N/T (nine day survivors/total mice) [5]: 0/2; % ILS (increase in lifespan) ([5]; 25% or greater indicates activity): 21%; Survival Time, individual mice ([5]; listed as Sk 32091): 8 and 9; inhibition of protein biosynthesis, in words ([4]; HL-60, 0.03 mg/ml): The same results were obtained
5 | CC(C)=CCc1c(O)c(C2CC(C)(C)Oc3cc(O)c4c(=O)c5ccccc5[nH]c4c32)c(O)c2c(=O)c3ccccc3n(C)c12 (stereo not shown) [Compound 52, Glycobismine-A] |  | not active |  |  |  | -57.4% | > 40 µg/mL | > 66.4 µM | -27.8% | -13.2% | 
6 | COc1cccc2c1C(=O)c1c(O)c3c(c(O)c1C2=O)C[C@@](O)(C(=O)CO)C[C@@H]3O[C@H]1C[C@H](N)[C@H](O)[C@H](C)O1 [Doxorubicin] |  |  |  |  |  |  |  |  |  |  | IC50 [6]: 0.028 µM; (IC50) 0/(IC50) Dx ([7]; L1210/0 and L1210/Dx): 26.1; IC50 ([7]; Mus musculus, L1210/Dx (doxorubicin resistant)): 0.73 µM
7 | Furofoline-II [Compound 51] |  | not active |  |  |  | -46.3% | > 40 µg/mL | > 124 µM | 13.1% | 19.5% | 
8 | Methoxymethyl-pyranofoline [Compound 49] |  | inhibited DNA synthesis significantly |  |  |  | 70.1% | 18.7 µg/mL | 47.1 µM | 85.3% | 87.3% | 
